In US10428080B2, “TBK/IKK inhibitor compounds and uses thereof” (Merck Patent GmbH, priority 2015, dated 2019):
Counter-ions that a name gives are not always drawn. Like-named read-outs stand apart in the source and are kept apart here.

Assays:
IKKε = target: T1, IKKε (Homo sapiens, UniProt Q14164); assay: IKKe Biochemical Assay; settings: read-out: IKKε IC50
T1 sequence (Q14164 1-716): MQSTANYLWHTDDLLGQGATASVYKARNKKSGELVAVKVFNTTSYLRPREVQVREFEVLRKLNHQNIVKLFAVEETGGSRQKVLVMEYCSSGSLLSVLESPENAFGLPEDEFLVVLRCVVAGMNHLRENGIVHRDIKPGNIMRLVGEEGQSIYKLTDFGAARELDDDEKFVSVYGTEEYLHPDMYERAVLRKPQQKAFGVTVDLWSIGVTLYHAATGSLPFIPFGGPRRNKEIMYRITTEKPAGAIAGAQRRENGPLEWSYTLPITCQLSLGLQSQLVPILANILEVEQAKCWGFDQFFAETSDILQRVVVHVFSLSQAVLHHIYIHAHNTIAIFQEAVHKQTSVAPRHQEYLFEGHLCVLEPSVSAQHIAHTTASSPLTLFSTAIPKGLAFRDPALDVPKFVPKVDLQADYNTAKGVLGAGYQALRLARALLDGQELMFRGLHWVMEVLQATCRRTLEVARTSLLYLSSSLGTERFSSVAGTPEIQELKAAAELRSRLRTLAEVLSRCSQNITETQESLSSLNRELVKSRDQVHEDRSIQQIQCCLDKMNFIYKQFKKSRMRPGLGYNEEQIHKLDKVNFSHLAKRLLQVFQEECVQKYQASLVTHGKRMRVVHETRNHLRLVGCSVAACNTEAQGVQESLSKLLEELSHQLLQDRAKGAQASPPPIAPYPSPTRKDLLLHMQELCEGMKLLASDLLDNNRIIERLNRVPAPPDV
How it was run: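 Recombinant IKKε and substrate were incubated with compound (10-point 1:4 series, top 30 uM final, 1% DMSO) for 90 min at 25° C, then stopped. Substrate-to-product conversion was read by LabChip microfluidic mobility shift; 10 uM staurosporine served as full-inhibition wells.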

[1] = system: phosphorylation of the IRF-3 protein in MDA-MB-468 cells; assay: pIRF3 immunocytochemistry cell based assay; settings: Homo sapiens
How it was run: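 MDA-MB-468 cells got compounds (10-point, 3-fold from 10 uM) for 1 h at 37 °C, then 10 ug/ml Poly(I:C) for 2 h. Fixed, permeabilized cells were immunostained for pIRF3 with AlexaFluor488 and counterstained with PI. % phosphorylation was read by laser scanning cytometry, and IC50 curves were fitted.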

TBK1 = target: T2, TBK1 (Homo sapiens, UniProt Q9UHD2); assay: TBK Biochemical Assay; settings: read-out: TBK1 IC50
T2 sequence (Q9UHD2 1-729): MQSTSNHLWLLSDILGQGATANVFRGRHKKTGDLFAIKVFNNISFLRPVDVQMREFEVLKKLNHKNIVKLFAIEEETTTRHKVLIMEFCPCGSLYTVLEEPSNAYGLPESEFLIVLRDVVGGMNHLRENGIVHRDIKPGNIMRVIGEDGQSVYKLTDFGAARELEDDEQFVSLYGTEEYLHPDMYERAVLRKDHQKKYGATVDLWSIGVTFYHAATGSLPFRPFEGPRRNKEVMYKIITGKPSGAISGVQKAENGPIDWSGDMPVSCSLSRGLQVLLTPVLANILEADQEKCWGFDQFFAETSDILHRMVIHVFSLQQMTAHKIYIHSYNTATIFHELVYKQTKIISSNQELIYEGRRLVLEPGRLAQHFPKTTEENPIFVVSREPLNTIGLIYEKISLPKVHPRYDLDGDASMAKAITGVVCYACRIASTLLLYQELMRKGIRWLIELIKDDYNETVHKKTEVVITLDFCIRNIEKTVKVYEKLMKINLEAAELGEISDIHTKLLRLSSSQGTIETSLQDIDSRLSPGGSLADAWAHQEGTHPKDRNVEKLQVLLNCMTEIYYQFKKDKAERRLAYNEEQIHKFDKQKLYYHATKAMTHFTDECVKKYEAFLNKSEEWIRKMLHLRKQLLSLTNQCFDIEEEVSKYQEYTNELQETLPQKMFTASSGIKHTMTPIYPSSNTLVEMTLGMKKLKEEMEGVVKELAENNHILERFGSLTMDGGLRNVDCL
How it was run: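 TBK1 enzyme and substrate incubated with compounds (10-point 1:4 dilution, top 30 uM final, 1% DMSO) for 90 min at 25° C, then stopped. Substrate/product peaks read by microfluidic mobility-shift (Caliper LabChip); 10 uM staurosporine as full-inhibition control.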

[2] = MDA-MB-468 cells, Poly(I:C) stimulation, read-out: pIRF3 IC50
[3] = MDA-MB-468, read-out: pIRF3 IC50

Row | SMILES | IC50 (IKKε) [nM] | IC50 [1, 2] [nM] | IC50 (TBK1) [nM] | IC50 [1, 3] [nM]
1 | COc1cc(C(=O)N2CCCC2)cnc1-c1cc2nccc(-c3ccc(OC4CCOCC4)c(C#N)c3)c2o1 [Compound 416, 5-(2-[3-methoxy-5-[(pyrrolidin-1-yl)carbonyl]pyridin-2-yl]furo[3,2-b]pyridin-7-yl)-2-(oxan-4-yloxy)benzonitrile hydrochloride] | < 100 | 100 to 1000 | < 100 | –
2 | COc1cc(C(=O)NC(C)(C)CCN(C)C)ccc1-c1cc2nccc(-c3ccc(NC4CCOCC4)c(C#N)c3)c2o1 [Compound 514, 4-{7-[3-Cyano-4-(tetrahydro-pyran-4-ylamino)-phenyl]-furo[3,2-b]pyridin-2-yl}-N-(3-dimethylamino-1,1-dimethyl-propyl)-3-methoxy-benzamide] | < 100 | < 100 | < 100 | –
3 | COc1cc(C(=O)N(C)C)ccc1-c1cc2nccc(-c3cnc(NC4CCOCC4)c(C#N)c3)c2o1 [Compound 324, 4-(7-(5-cyano-6-(tetrahydro-2H-pyran-4-ylamino)pyridin-3-yl)furo[3,2-b]pyridin-2-yl)-3-methoxy-N,N-dimethylbenzamide] | < 100 | 100 to 1000 | < 100 | –
4 | COc1cc(C(=O)N(C)C)cnc1-c1cc2nccc(-c3ccc(NC4CCNC4)c(C#N)c3)c2o1 (stereo not drawn) [Compound 432, 6-(7-[3-cyano-4-[(pyrrolidin-3-yl)amino]phenyl]furo[3,2-b]pyridin-2-yl)-5-methoxy-N,N-dimethylpyridine-3-carboxamide] | < 100 | < 100 | < 100 | –
5 | COc1cc(C(=O)NC2C3COCC32)ccc1-c1cc2nccc(-c3ccc(N4CC[C@@H](F)C4)c(C#N)c3)c2o1 (stereo partly drawn) [Compound 498] | < 100 | 100 to 1000 | 100 to 1000 | –
6 | COc1cc(C(=O)N(C)CCO)ccc1-c1cc2ncc(Cl)c(-c3ccc(OC4CCOCC4)c(C#N)c3)c2o1 [Compound 304, 4-[6-chloro-7-[3-cyano-4-(oxan-4-yloxy)phenyl]furo[3,2-b]pyridin-2-yl]-N-(2-hydroxyethyl)-3-methoxy-N-methylbenzamide] | 100 to 1000 | 1000 to 5000 | 100 to 1000 | –
7 | COc1cc(C(=O)NC2CN3CCC2CC3)cnc1-c1cc2nccc(-c3ccc(N4CC[C@H](F)C4)c(C#N)c3)c2o1 (stereo partly drawn) [Compound 439, N—(S)-1-Aza-bicyclo[2.20.2]oct-3-yl-6-{7-[3-cyano-4-((S)-3-fluoro-pyrrolidin-1-yl)-phenyl]-furo[3,2-b]pyridin-2-yl}-5-methoxy-nicotinamide] | < 100 | 100 to 1000 | < 100 | –
8 | COc1cc(C(=O)NC(C)(C)CCN(C)C)ccc1-c1cc2nccc(-c3ccc(OC4CCOCC4)c(C#N)c3)c2o1 [Compound 505, 4-{7-[3-Cyano-4-(tetrahydro-pyran-4-yloxy)-phenyl]-furo[3,2-b]pyridin-2-yl}-N-(3-dimethylamino-1,1-dimethyl-propyl)-3-methoxy-benzamide] | < 100 | 100 to 1000 | < 100 | –
9 | COc1c(C(=O)N(C)C)nn(C)c1-c1cc2nccc(-c3ccc(OC4CCOCC4)c(C#N)c3)c2o1 [Compound 401, 5-[7-[3-cyano-4-(oxan-4-yloxy)phenyl]furo[3,2-b]pyridin-2-yl]-4-methoxy-N,N,1-trimethyl-1H-pyrazole-3-carboxamide hydrochloride] | < 100 | – | < 100 | 100 to 1000
10 | COc1cc(-c2cc3nccc(-c4ccc(OC5CCOCC5)c(C#N)c4)c3o2)ncc1C(=O)N(C)C [Compound 391, 6-[7-[3-cyano-4-(oxan-4-yloxy)phenyl]furo[3,2-b]pyridin-2-yl]-4-methoxy-N,N-dimethylpyridine-3-carboxamide] | < 100 | – | 100 to 1000 | 1000 to 5000
11 | COc1cc(C(=O)N2CC[C@H](N(C)C)C2)ncc1-c1cc2nccc(-c3ccc(N4CC[C@H](F)C4)c(C#N)c3)c2o1 [Compound 449, 5-[2-(6-[[(3S)-3-(dimethylamino)pyrrolidin-1-yl]carbonyl]-4-methoxypyridin-3-yl)furo[3,2-b]pyridin-7-yl]-2-[(3S)-3-fluoropyrrolidin-1-yl]benzonitrile] | < 100 | < 100 | < 100 | –
12 | CN(C)C(=O)c1ccc(-c2cc3nccc(-c4ccc(OC5CCCOC5)c(C#N)c4)c3o2)cc1 (stereo not drawn) [Compound 160] | < 100 | 1000 to 5000 | 100 to 1000 | –
13 | COc1cc(C(=O)N2CCCCC2)ncc1-c1cc2nccc(-c3ccc(N4CCC(F)C4)c(C#N)c3)c2o1 (stereo in doubt) [Compound 384, 2-((S)-3-Fluoro-pyrrolidin-1-yl)-5-{2-[4-methoxy-6-(piperidine-1-carbonyl)-pyridin-3-yl]-furo[3,2-b]pyridin-7-yl}-benzonitrile] | < 100 | < 100 | < 100 | –
14 | COc1cc(C(=O)NC[C@@H](O)CO)ccc1-c1cc2nccc(-c3ccc(OC4CCOCC4)c(C#N)c3)c2o1 [Compound 49, 4-{7-[3-Cyano-4-(tetrahydro-pyran-4-yloxy)-phenyl]-furo[3,2-b]pyridin-2-yl}-N—((R)-2,3-dihydroxy-propyl)-3-methoxy-benzamide] | < 100 | 100 to 1000 | < 100 | –
15 | COc1cc(C(=O)N2CCC3(CCO3)CC2)ccc1-c1cc2nccc(-c3ccc(OC4CCOCC4)c(C#N)c3)c2o1 [Compound 3, 5-{2-[2-Methoxy-4-(1-oxa-7-aza-spiro[3.5]nonane-7-carbonyl)-phenyl]-furo[3,2-b]pyridin-7-yl}-2-(tetrahydro-pyran-4-yloxy)-benzonitrile] | < 100 | 100 to 1000 | < 100 | –
16 | COc1cc(C(=O)N(C)C)n(C)c1-c1cc2nccc(-c3ccc(OC4CCOCC4)c(C#N)c3)c2o1 [Compound 402, 5-[7-[3-cyano-4-(oxan-4-yloxy)phenyl]furo[3,2-b]pyridin-2-yl]-4-methoxy-N,N,1-trimethyl-1H-pyrrole-2-carboxamide] | < 100 | < 100 | < 100 | –
17 | COc1cc(C(=O)N(C)C)cnc1-c1cc2nccc(-c3ccc(OC4CCN(C)C4)c(C#N)c3)c2o1 (stereo not drawn) [Compound 426, 6-(7-[3-cyano-4-[(1-methylpyrrolidin-3-yl)oxy]phenyl]furo[3,2-b]pyridin-2-yl)-5-methoxy-N,N-dimethylpyridine-3-carboxamide] | 100 to 1000 | 100 to 1000 | 100 to 1000 | –
18 | N#Cc1cc(-c2ccnc3cc(-c4ccc(C(=O)O)cc4)oc23)ccc1OC1CCCOC1 (stereo not drawn) [Compound 166] | < 100 | 100 to 1000 | 100 to 1000 | –
19 | COc1cc(C(=O)N2CCCC2)ccc1-c1cc2nccc(-c3ccc(OC4CCOCC4)c(C#N)c3)c2o1 [Compound 37, 5-{2-[2-Methoxy-4-(pyrrolidine-1-carbonyl)-phenyl]-furo[3,2-b]pyridin-7-yl}-2-(tetrahydro-pyran-4-yloxy)-benzonitrile] | < 100 | 100 to 1000 | < 100 | –
20 | COc1cc(C(=O)O)ccc1-c1cc2nccc(-c3ccc(NC4CCOCC4)c(C#N)c3)c2o1 [Compound 88] | < 100 | 100 to 1000 | < 100 | –
